Data set [1] in a line: Foam behaviour on hair / in the hand. As to conditions: 1 Gew% in Wasser, with hair strands, rubbed in the hand; single component. An excerpt: Hier zeigte sich erstaunlicherweise das die erfindungsgemäßen Verbindungen eine vergleichbare Schaumbildung auf der Haut oder dem Haar wie z.B. Laurylethersulfat zeigen, jedoch in deutlich niedrigeren Einsatzkonzentrationen. Aus den Daten für Lac-EG-C12 (Tab. 10) war nicht unbedingt zu erwarten, dass es sich in Wasser beim Verreiben des Tensids in der Hand um einen guten Schaumbildner handelt. Auch in Gegenwart von Haaren wird beim Verreiben des Tensids eine Schaumbildung beobachtet. Dazu wurde 1 Gew% der erfindungsgemäßen Substanz in Wasser in Gegenwart von Haarsträhnen gelöst und in der Hand verrieben. Der Schaum ist wesentlich feinporiger als vergleichbare Schäume von Laurylethersulfat. […] Lac-Laureth-3.

Data set [2] in a line: Foam image and size distribution of the gas bubbles. It is filed as physicochemical. As to conditions: 1 Gew.% in Wasser. How it is done:
Schaumbild und Größenverteilung der Gasbläschen nach 0 min. (Abb. 2 und 3) und nach 10 min. (Abb. 4 und 5) von Lac-EG-C12 in einer Gesamtkonzentration von 1 Gew.%. in Wasser. Man erkennt, daß der Schaum zu Beginn fast ausschließlich aus Bläschen mit einer Porengröße von unter 10000 µm^2 besteht. Nach 10 min. wird die Größenverteilung etwas flacher, wobei immer noch rund ein Viertel der Bläschen eine Größe von unter 10000 µm^2 aufweist.

Data set [3] in a line: Gel formation in dimethyl sulfoxide (DMSO) / water mixtures. In kind it is physicochemical. Further details: key: G=Gel; Gp = Teilweise geliert; I = Isotrope Lösung; S = Fest beim Abkühlen (bedingt durch gefrorenes Lösungsmittel). As to conditions: 0.1 Gew.%. The protocol:
Tabelle 2: Phasenumwandlungstemperaturen (Tgel) vom Gel zur isotropen Lösung für unterschiedliche Lösungsmittelzusammensetzung (Dimethylsulfoxid, DMSO und Wasser, H2O) bei gleichbleibender Lipidkonzentration (0.1 Gew.%) (Abweichung ± 0.5 °C). Die Verbindung formt klare Gele oder geliert nur teilweise, oberhalb der Übergangstemperatur bildet sie eine klare Lösung. Tgel ist definiert als die Temperatur bei der das Gel sich beginnt aufzulösen. Die Temperaturspanne des Übergangs beträgt im Normalfall 2 bis 5 °C.

A short description of data set [4]: Gel formation in water: phase transition temperature (Tgel) from gel to isotropic solution. It is filed as physicochemical.
Test in data set [5]: as above
In kind it is physicochemical. As to conditions: for Übergangstemperatur: 0.1 Gew.%, gel up to this temperature, liquid above. The protocol: Tabelle 1: Phasenumwandlungstemperaturen (Tgel) vom Gel zur isotropen Lösung für unterschiedliche Konzentrationen an Lipid (Abweichung ± 0.5 °C). Die Verbindung bildet ein stabiles Gel und oberhalb von Tgel eine klare Lösung. Tgel ist definiert als die Temperatur bei der das Gel sich beginnt aufzulösen. Die Temperaturspanne des Übergangs beträgt im Normalfall 2 bis 5 °C.

Data set [6] in a line: Foaming capacity and foam stability of aqueous solutions in 100 mL measuring cylinders. In kind it is physicochemical. As to conditions: 50°C; immediate volume and 30 min. volume. How it is done:
Messungen werden in 100 mL Meßzylindern durchgeführt. Vor Benutzung wird der Meßzylinder mit konzentrierter Nitriersäure gefüllt und 24 Stunden gelagert, danach mit bidestilliertem Wasser für weitere 24 Stunden. Lösungen werden durch Einwaage des Lipids und Zugabe von bidestilliertem Wasser bis zu einem Gesamtgewicht von 10 g (ca. 10 mL) hergestellt. Lösungen der jeweils niedrigeren Konzentration werden durch Verdünnung der ersten hergestellt. Vor der Messung wird der Meßzylinder bei der gewünschten Temperatur gelagert. Zur Schaumbildung wird der Meßzylinder 20 mal innerhalb von 30 Sekunden umgeschwenkt. Die Messung wird bis zu einer Abweichung von nicht mehr als 5 % wiederholt. Schaumvolumina werden direkt nach dem Schwenken des Zylinders (Schäumungsvermögen) und nach 30 Minuten (Schaumstabilität) bestimmt. '

Where only a bound is given, the exact number is not on record here.

As for `CCCCCCCCCCCCOCCO[C@@H]1O[C@H](CO)[C@@H](O[C@@H]2O[C@H](CO)[C@H](O)[C@H](O)[C@H]2O)[C@H](O)[C@H]1O` [Lac-EG-C12, (2'-Dodecyloxyethyl) 4-O-(β-D-galactopyranosyl)-β-D-glucopyranosid], the “Schaumbildung auf Haar / in der Hand” value in data set [1] is listed as “bester Schaumbildner”. Besides, in data set [2] (0 min., almost all bubbles), the “Porengröße der Bläschen” value is on record as less than 10000 µm^2. Further, in data set [2] (nach 10 min.), the “Anteil der Bläschen mit einer Größe von unter 10000 µm^2” value is on record as “ein Viertel”. Moreover, the Gelbildungsverhalten result in data set [3] (H2O /DMSO 1:9, 4 °C) was “I”; in data set [3] (H2O /DMSO 1:9, 20 °C), “I”; in data set [3] (H2O /DMSO 1:9, -27 °C), “S”; in data set [3] (H2O /DMSO 2:8, 4 °C), “I”; in data set [3] (H2O /DMSO 2:8, 20 °C), “I”; in data set [3] (H2O /DMSO 2:8, -27 °C) it was “S”. Besides, the Gelbildungsverhalten result in data set [3] (H2O /DMSO 3:7, 4 °C) was “Gp”; in data set [3] (H2O /DMSO 3:7, 20 °C), “I”; in data set [3] (H2O /DMSO 3:7, -27 °C) it was “S”; in data set [3] (H2O /DMSO 4:6, 4 °C) it was “G”; in data set [3] (H2O /DMSO 4:6, 20 °C) it was “G”; in data set [3] (H2O /DMSO 4:6, 39 °C), “Gp”. Besides, the Gelbildungsverhalten entry in data set [3] (H2O /DMSO 4:6, 50 °C) was “I”; in data set [3] (H2O /DMSO 4:6, -27 °C) it was “S”; in data set [3] (H2O /DMSO 5:5, 4 °C), “G”; in data set [3] (H2O /DMSO 5:5, 20 °C) it was “G”; in data set [3] (H2O /DMSO 5:5, 39 °C), “G”; in data set [3] (H2O /DMSO 5:5, 50 °C), “I”. Also, the Gelbildungsverhalten result in data set [3] (H2O /DMSO 5:5, -27 °C) is reported as “G”; in data set [3] (H2O /DMSO 6:4, 4 °C) it was “G”; in data set [3] (H2O /DMSO 6:4, 20 °C) it was “G”; in data set [3] (H2O /DMSO 6:4, 39 °C) it was “G”; in data set [3] (H2O /DMSO 6:4, 50 °C), “I”; in data set [3] (H2O /DMSO 6:4, -27 °C), “S”. Moreover, the Gelbildungsverhalten entry in data set [3] (H2O /DMSO 7:3, 4 °C) is “G”; in data set [3] (H2O /DMSO 7:3, 20 °C), “G”; in data set [3] (H2O /DMSO 7:3, 39 °C), “G”; in data set [3] (H2O /DMSO 7:3, 50 °C) it was “I”; in data set [3] (H2O /DMSO 7:3, -27 °C), “S”; in data set [3] (H2O /DMSO 8:2, 4 °C), “G”. Also, the Gelbildungsverhalten result is on record as “G” in data set [3] (H2O /DMSO 8:2, 20 °C); “G” in data set [3] (H2O /DMSO 8:2, 39 °C); “I” in data set [3] (H2O /DMSO 8:2, 50 °C); “S” in data set [3] (H2O /DMSO 8:2, -27 °C); “G” in data set [3] (H2O /DMSO 9:1, 4 °C); “G” in data set [3] (H2O /DMSO 9:1, 20 °C). The Gelbildungsverhalten entry is reported as “G” in data set [3] (H2O /DMSO 9:1, 39 °C); “I” in data set [3] (H2O /DMSO 9:1, 50 °C); “S” in data set [3] (H2O /DMSO 9:1, -27 °C). Also, the Gelbildung entry is reported as “Gelbildung aber wieder einsetzt” in data set [4] (11 Gew.% Laurylethersulfat to 4 Gew.% of the β-anomer) and “kein Gel mehr bildet” in data set [4] (mixture of 13 Gew% Laurylethersulfat with 2 Gew.% of the β-anomer). Further, the “Anteil an α-Anomer, ab dem die Gelbildung durch das β-Anomer aufgehoben wird” value in data set [4] (mixture of α- and β-anomer) is reported as greater than 80 Gew.%. In addition, the Tgel in data set [5] (0.03 Gew.% (0.60 mM) in water) came to 10 °C; in data set [5] (0.04 Gew.% (0.72 mM) in water), 21 °C; in data set [5] (0.05 Gew.% (0.90 mM) in water), 30 °C; in data set [5] (0.06 Gew.% (1.03 mM) in water), 35 °C; in data set [5] (0.07 Gew.% (1.20 mM) in water), 38 °C; in data set [5] (0.08 Gew.% (1.44 mM) in water), 40 °C. For the same molecule, the Tgel in data set [5] (0.1 Gew.% (1.80 mM) in water) is 43 °C; in data set [5] (0.13 Gew.% (2.41 mM) in water) it was 45 °C; in data set [5] (0.2 Gew.% (3.61 mM) in water), 46 °C; in data set [5] (0.5 Gew.% (9.02 mM) in water), 48 °C; in data set [5] (1 Gew.% (18.04 mM) in water), 50 °C; in data set [5] (5 Gew.% (90.20 mM) in water) it was 51 °C. For the same molecule, the Tgel in data set [5] (10 Gew.% (180.40 mM) in water) was 51 °C. This molecule displayed a Übergangstemperatur in data set [5] of 43 °C. Further, the “Schaumbildner (comparison with SLES)” value in data set [6] was “wesentlich bessere Schaumbildner als Natriumlauryethersulfat (SLES)”.
In turn, `CCCCCCCCCCCCOC(C)CO[C@@H]1O[C@H](CO)[C@@H](O[C@@H]2O[C@H](CO)[C@H](O)[C@H](O)[C@H]2O)[C@H](O)[C@H]1O` (stereo partly drawn) [Lac-PG-C12, (2'-Dodecyloxypropyl) 4-0-(β-D-galactopyranosyl)-β-D-glucopyranosid] returned a Übergangstemperatur in data set [5] of 41 °C.
For the molecule `CCCCCCCCCCCCOCCO[C@H]1O[C@H](CO)[C@@H](O[C@@H]2O[C@H](CO)[C@H](O)[C@H](O)[C@H]2O)[C@H](O)[C@H]1O` [Lac-α-EG-C12, (2'-Dodecyloxyethyl) 4-O-(β-D-galactopyranosyl)-α-D-glucopyranosid], the Gelbildung result in data set [5] (in water) is “kein Gel bildet”.
In the case of `CCCCCCCCCCCCOCCO[C@@H]1O[C@H](CO)[C@@H](O[C@H]2O[C@H](CO)[C@@H](O)[C@H](O)[C@H]2O)[C@H](O)[C@H]1O` [Mal-EG-C12, (2'-Dodecyloxyethyl) 4-O-(α-D-glucopyranosyl)-β-D-glucopyranosid], the “Schaumbildner (comparison with SLES)” value in data set [6] is reported as “wesentlich bessere Schaumbildner als Natriumlauryethersulfat (SLES)”.
Same read-out and setting: the same measure for `CCCCCCCCCCCCOCCO[C@@H]1O[C@H](CO[C@H]2O[C@H](CO)[C@H](O)[C@H](O)[C@H]2O)[C@@H](O)[C@H](O)[C@H]1O` [Mel-EG-C12, (2'-Dodecyloxyethyl) 6-O-(α-D-galactopyranosyl)-β-D-glucopyranosid]: “wesentlich bessere Schaumbildner als Natriumlauryethersulfat (SLES)”.
